In article PMC11624893 (Journal of the American Chemical Society, 2024):
Positions of bridges follow the written chain, without caps; N, C: chain ends. Non-standard residues stand in square brackets, D forms with d. Residues, ends and D or L forms follow the SMILES beside them. *: point of attachment. X1 = CC[C@H](C)CCCCC(=O)*; Dab = NCC[C@H](N)C(=O)O

Legend:
[1] = test system: S. aureus 29213; experiment: Minimum inhibitory concentration; format: cell-based; settings: for Minimum Inhibitory Concentration (MIC): S. aureus 29213, Gram-positive, actively growing
[2] = test system: E. coli 25922; experiment: Minimum inhibitory concentration; format: cell-based; settings: for Minimum Inhibitory Concentration (MIC): E. coli 25922, Gram-negative
[3] = test system: P. aeruginosa PA14; experiment: Minimum inhibitory concentration; format: cell-based; settings: for Minimum Inhibitory Concentration (MIC): P. aeruginosa PA14, Gram-negative
[4] = test system: A. baumannii 19606; experiment: Minimum inhibitory concentration; format: cell-based; settings: for Minimum Inhibitory Concentration (MIC): A. baumannii 19606, Gram-negative
[5] = test system: E. faecium 51559; experiment: microbe, parasite or virus in culture; settings: Enterococcus faecium, VRE, read-out: Minimum Inhibitory Concentration (MIC)
[6] = test system: M. avium 700898; experiment: microbe, parasite or virus in culture; settings: Mycobacterium avium, 700898, read-out: Minimum Inhibitory Concentration (MIC)
[7] = test system: K. pneumoniae 700603; experiment: microbe, parasite or virus in culture; settings: Klebsiella pneumoniae, 700603, read-out: Minimum Inhibitory Concentration (MIC)
[8] = test system: M. avium 700898; settings: M. avium 700898, mycobacteria
[9] = test system: M. abscessus 19977; experiment: Minimum inhibitory concentration; format: cell-based; settings: M. abscessus 19977, mycobacteria
[10] = test system: E. faecium 51559; settings: E. faecium 51559, vanA-type resistance reference strain (VRE)
[11] = test system: biofilm-associated S. aureus 29213; experiment: Minimum biofilm eradication concentration; format: cell-based
[12] = test system: K. pneumoniae 700603; settings: K. pneumoniae 700603, Gram-negative
[13] = test system: biofilm-associated M. smegmatis 700084; experiment: Minimum biofilm eradication concentration; format: cell-based
[14] = test system: M. smegmatis 700084; experiment: Minimum inhibitory concentration; format: cell-based; settings: M. smegmatis 700084, mycobacteria
[15] = test system: biofilm-associated E. coli 25922; experiment: Minimum biofilm eradication concentration; format: cell-based
[16] = test system: E. coli 25922; experiment: Outer membrane permeability, 1-N-phenylnapthylamine; format: cell-based; settings: E. coli 25922, 5e at 80 μM (10x MIC)
[17] = test system: M. smegmatis; experiment: Peptidoglycan precursor accumulation, LC-MS; format: cell-based; settings: treatment, cell lysis
[18] = test system: M. smegmatis 700084; experiment: Ethidium bromide; format: cell-based; settings: M. smegmatis 700084, 8 μM (1x MIC)
[19] = test system: S. aureus; experiment: Peptidoglycan precursor accumulation, LC-MS; format: cell-based; settings: treatment, cell lysis
[20] = test system: panel containing Gram-positive, Gram-negative, and mycobacterial microorganisms; experiment: MIC assay, statements over the whole panel; format: cell-based; settings: Gram-negative organisms (E. coli, A. baumannii, K. pneumoniae, P. aeruginosa)
[21] = test system: S. aureus 29213; experiment: Membrane permeability, propidium iodide; format: cell-based; settings: S. aureus 29213, exponential-phase cells in HEPES-Glucose buffer
[22] = biofilm-associated S. aureus 29213, as given in the text
[23] = pre-formed biofilm of E. coli 25922, Table 2
[24] = pre-formed biofilms of E. coli 25922, as given in the text

Compound | Minimum Inhibitory Concentration (MIC) [8] [µM] | Minimum Inhibitory Concentration (MIC) [1] [µM] | Minimum Inhibitory Concentration (MIC) [9] [µM] | Minimum Inhibitory Concentration (MIC) [2] [µM] | Minimum Inhibitory Concentration (MIC) [10] [µM] | Minimum Inhibitory Concentration (MIC) [3] [µM] | minimum biofilm eradication concentration (MBEC) [11, 22] [µM] | Minimum Inhibitory Concentration (MIC) [4] [µM] | Minimum Inhibitory Concentration (MIC) [12] [µM] | Minimum Inhibitory Concentration (MIC) [14] [µM] | minimum biofilm eradication concentration (MBEC) [15, 23] [µM] | minimum biofilm eradication concentration (MBEC) [15, 24] | other results
CN(C)C(=N)N=C(N)N [Metformin, metformin] |  |  |  |  |  |  |  |  |  |  |  |  | MIC ([1]; Staphylococcus aureus, 29213, read-out: Minimum Inhibitory Concentration (MIC)): > 512 µM; MIC ([2]; Escherichia coli, 25922, read-out: Minimum Inhibitory Concentration (MIC)): > 512 µM; MIC ([3]; Pseudomonas aeruginosa, PA14, read-out: Minimum Inhibitory Concentration (MIC)): > 512 µM; MIC ([4]; Acinetobacter baumannii, 19606, read-out: Minimum Inhibitory Concentration (MIC)): > 512 µM; MIC [5]: > 512 µM; MIC [6]: > 512 µM; MIC [7]: > 512 µM
CN[C@H](CC(C)C)C(=O)N[C@H]1C(=O)N[C@@H](CC(N)=O)C(=O)N[C@H]2C(=O)N[C@H]3C(=O)N[C@H](C(=O)N[C@H](C(=O)O)c4cc(O)cc(O)c4-c4cc3ccc4O)[C@H](O[C@H]3C[C@](C)(N)[C@@H](O)[C@H](C)O3)c3ccc(c(Cl)c3)Oc3cc2cc(c3O[C@@H]2O[C@H](CO)[C@@H](O)[C@H](O)[C@H]2O[C@H]2C[C@](C)(NCc3ccc(-c4ccc(Cl)cc4)cc3)[C@@H](O)[C@H](C)O2)Oc2ccc(cc2Cl)[C@H]1O [Oritavancin, oritavancin] | 128 | 1 | 128 | >512 | 2 | >512 | 2 to 4 | 512 | >512 | 32 | >128 | no activity | minimum biofilm eradication concentration (MBEC) ([11]; pre-formed biofilm of S. aureus 29213, Table 2): 2 to 4 µM; minimum biofilm eradication concentration (MBEC) ([13]; pre-formed biofilms of M. smegmatis 700084, as given in the text): > 256 µM
CC[C@H](C)CCCCC(=O)N[C@@H](CCN)C(=O)N[C@H](C(=O)N[C@@H](CCN)C(=O)N[C@H]1CCNC(=O)[C@H]([C@@H](C)O)NC(=O)[C@H](CCN)NC(=O)[C@H](CCN)NC(=O)[C@H](CC(C)C)NC(=O)[C@@H](Cc2ccccc2)NC(=O)[C@H](CCN)NC1=O)[C@@H](C)O [Polymyxin B, polymyxin B] (X1-[Dab]T[Dab][Dab][Dab][dF]L[Dab][Dab]T; lactam 4-C (inferred); N-terminus assumed) |  |  |  |  |  |  |  |  |  |  | 16 to 32 | 16 to 32 µM | 
CO[C@H]1/C=C/O[C@@]2(C)Oc3c(C)c(O)c4c(O)c(c(/C=N/N5CCN(C)CC5)c(O)c4c3C2=O)NC(=O)/C(C)=C\C=C\[C@H](C)[C@H](O)[C@@H](C)[C@@H](O)[C@@H](C)[C@H](OC(C)=O)[C@@H]1C [Rifampicin, rifampicin] |  |  |  |  |  |  | 16 to 32 |  |  |  |  |  | 
CN[C@H](CC(C)C)C(=O)N[C@H]1C(=O)N[C@@H](CC(N)=O)C(=O)N[C@H]2C(=O)N[C@H]3C(=O)N[C@H](C(=O)N[C@H](C(=O)O)c4cc(O)cc(O)c4-c4cc3ccc4O)[C@H](O)c3ccc(c(Cl)c3)Oc3cc2cc(c3O[C@@H]2O[C@H](CO)[C@@H](O)[C@H](O)[C@H]2O[C@H]2C[C@](C)(N)[C@H](O)[C@H](C)O2)Oc2ccc(cc2Cl)[C@H]1O [Vancomycin, vancomycin] | 16 | 1 | 32 to 64 | 128 to 256 | 512 | 256 to 512 | > 512 | 64 to 128 | 256 to 512 | 8 |  | 256 µM | NPN fluorescence (outer membrane destabilization) [16]: no increase in fluorescence; accumulation of peptidoglycan precursor (UDP-MurNGlyc pentapeptide) [17]: related UDP-MurNGlyc pentapeptide in M. smegmatis; EtBr fluorescence [18]: did not influence EtBr fluorescence; accumulation of peptidoglycan precursor (UDP-MurNAc pentapeptide) [19]: accumulation of the UDP-MurNAc pentapeptide; typical MIC against Gram-negative organisms [20]: ≥ 128 µM; PI fluorescence (membrane permeabilization) [21]: no increase in fluorescence; minimum biofilm eradication concentration (MBEC) ([13]; pre-formed biofilm of M. smegmatis 700084, Table 2): 64 µM
Gentamycin |  |  |  |  |  |  |  |  |  |  | 8 |  | 
